Test results taken from patent publication US20050037446A1, “Agents that recognize src when phosphorylated at serine 17” (priority 2001, published 2005).
Values belong to the compound of their own block, whether it stands above or below them.

Tests used:
Src++ and SYF cells = test: MTT assay for cell proliferation; assay type: cell-based, mouse; conditions: for Stimulation of cell growth: SYF cells, 48 hours
Procedure: To determine the effect of Src on cell proliferation, the following protocol was used. Src^++ and SYF cells were serum-starved overnight and plated onto 96 well plates. Cells were then treated with PDGF, EGF, Forskolin, H89, and/or PD98059 (PD, 10 μM, Cal Biochem). Cells were analyzed 48 hours later by MTT assay and data quantified (n=4±S.E.). The MTT assay for cell proliferation was conducted as follows (Schmitt and Stork, Mol. Cell. Biol. 21:3671-83, 2001). Briefly, 2.5 hours prior to lysis, 20 μl of sterile […] MTT (Sigma) was added to the cells and allowed to incubate at 37° C. At the appropriate time, cells were lysed and proteins solubilized in 50% volume/volume H2O and N,N,-dimethylformamide containing 20% SDS, 0.5% of 80% acetic acid, and 0.4% 1M HCL Plates were read using a microplate reader and presented as the difference between optical densities at […].
To quantitate cell proliferation, cells were analyzed 48 hours later by MTT assay (see EXAMPLE 3) and data was quantified (n=4±S.E.). […] Expression of Flag-Src in SYF cells restored Forskolin's ability to inhibit PDGF- and EGF-mediated cell growth.

[1] = test system: purified catalytic subunit of PKA; test: PKA kinase assay on membrane-spotted Src peptides, phospho-PKA substrate antibody; assay type: biochemical; conditions: 12.5 nM PKA catalytic subunit, 30° C., 30 minutes
Excerpt: A peptide identical to amino acids 9-25 within the N-terminus of wild-type Src (WT) (KDASQRRRSLEPAENVH; SEQ ID NO: 12), which contains the potential PKA phosphorylation site (underlined), was generated using an Auto-Spot Robot ASP 222 (ABiMED, Langenfeld, Germany) and spotted onto a nitrocellulose membrane. Control peptides with serines 12 and/or 17 replaced by alanine (S12A, SEQ ID NO: 13; S17A, SEQ ID NO: 14; and S12AS17A, SEQ ID NO: 15), serine 17 replaced by aspartate (S17D, SEQ ID NO: 16), and arginines at 14-16 replaced by alanine (R14A, SEQ ID NO: 17; • R15A, SEQ ID NO: 18; R16A, SEQ ID NO: 19), as well as peptides designed to both a scrambled (SEQ ID NO: 20) and an unrelated (FLAG) sequence (SEQ ID NO: 21), were also generated and spotted onto the membrane.
Using a method previously described (Tegge et al., Biochen. 34:10569-77, 1995), the membranes were pre-incubated at room temperature (RT) overnight (ON) in buffer containing 20 mM Hepes, pH 7.4, 100 mM NaCl, 2 mM MgCl2, 1 mM EDTA, 1 mM DTI, and 0.2 mg/ml BSA. Membranes were then blocked at 30° C. for one hour in buffer containing 20 mM Hepes, pH 7.4, 100 mM NaCl, 2 mM MgCl2, 1 mM EDTA, 1 mM DTT, and 1 mg/ml BSA and 30 μM cold ATP. […] The membranes were then blocked, probed, and analyzed using chemiluminescence according the manufacturers guidelines for the phospho-PKA substrate antibody. […]

Src = Src autophosphorylation at tyrosine 416 (Western blot); assay type: cell-based; conditions: SYF cells
Procedure: To examine the mechanism of cAMP regulation of Src, Src kinase activity was assayed in vivo by monitoring autophosphorylation of Src at tyrosine 416 (Tyr416) using previously disclosed methods (Brown and Cooper, Biochim. Biophys. Acta 1287:121-49, 1996; Martin, Nat. Rev. Mol. Cell. Biol. 2:467-75,2001).
[…] Cell lysates were prepared, and Src immunopreciptiated and analyzed by Western blot for either tyrosine phosphorylation at site 416 (p416Src) using phospho-Src (Tyr416) antibodies (Cell Signaling Technology), Flag-Src, or analyzed by Western blot for either PKA phosphorylation or Src (using Src antibodies, Santa Cruz Biotechnology Inc.), using the methods described above. Alternatively, Flag-Src was immunoprecipitated from the cell lysates and analyzed by Western blot for either Cb1 or Flag-Src.
The activation of wild type Src by Forskolin was confirmed by observing autophosphorylation of Src at Tyr416 and using an in vitro kinase assay. To measure autophosphorylation of Src at Tyr416, SYF cells were transfected with either Flag-Src (WT) or Flag-SrcS17A and treated with Forskolin and PDGF or EGF, as described above. Flag-Src was immunoprecipitated from cell lysates and analyzed by Western blot for either phosphorylation of Src on Tyr416 or the presence of Flag-Src. […]

Rap1 = Rap1 activation affinity assay (GST-RalGDS pull-down), NIH3T3 cells; assay type: cell-based; conditions: NIH3T3 cells, 10 μM, five minutes
Procedure: NIH3T3 cells (American Type Culture Collection, ATCC, Manassas, Va.) were cultured in Dulbecco-Modified Eagle Medium (DMEM) plus 10% fetal calf serum, penicillin/streptomycin, and L-glutamine at 37° C. in 5% CO2. Cells were maintained in serum-free DMEM for 16 hours at 37° C. in 5% CO2 prior to treatment. NIH3T3 cells were trasfected with Flag-Rap1 (see Vossler et al., Cell, 89:73-82, 1997) or stimulated with Forskolin (10 μM, Cal Biochem, Riverside, Calif.) for five minutes. Forskolin treated cells received either a pretreatment or post-treatment with 10 μM N-[2(Bromocimamylamino) ethyl]-5-isoquinolinesulfonamide (H89) (Cal Biochem, Riverside, Calif.) for 20 minutes.
Cells were co-transfected with Flag-Rap1 at seventy to eighty percent confluency with the cDNA using a Lipofectamine 2000 kit (Gibco BRL, Rockville, Md.) according to the manufacturer's instructions. The control vector, pcDNA3 (Invitrogen Corp.), was included in each set of transfections to assure that each plate received the same amount of DNA. Following transfection, cells were allowed to recover in serum containing media for 24 hours. Cells were then starved overnight in serum-free DMEM before treatment and lysis.
After treatment, cells were lysed in ice-cold lysis buffer (50 mM Tris-HCL (pH 8.0), 10% glycerol, 1% nonidet P40, 200 mM NaCl, 2.5 mM MgCl2, 1 mM phenylmethylsulfonyl fluoride, 1 μM leupeptin, 10 μln soybean trypsin inhibitor, 10 mM NaF, 0.1 μM aprotinin, and 1 mM NaVO4). Nuclei and cytoskeleton were removed from equivalent amounts of lysate by centrifugation at 5,000 rpm for five minutes. The supernatant was centrifuged at 100,000×g for one hour at 4° C. and, the resultant membrane was resuspended in cold lysis buffer. Aliquots of the membrane fraction were analyzed for the presence of C3G by Western blotting. The cytosolic or membrane fractions of treated or untreated cells were mixed with equivalent amounts of lysates from untreated Flag-Rap1 transfected cells. The mixture was incubated at 37° C. for five minutes and equal amounts of lysate were analyzed using the Rap1 activation assay to monitor Flag-Rap 1 activation by Gst-RalGDS.
The Rap1 activation affinity assay was performed as follows. A GST fusion protein of the Rap1-binding domain of RalGDS (GST-RalGDS, Dr. Bos, Utrecht University, The Netherlands) was expressed in E. coli following induction by isopropyl-1thio-β-D-galactopyranoside. Active Rap1 was isolated as previously described (Franke et al., EMBO J. 16:252-9, 1997). Briefly, equivalent amounts of supernatants (500 μg) were incubated with GST-RalGDS-Rap1 binding domain coupled to glutathione beads. Following a one hour incubation at 4° C., beads were pelleted and rinsed threes times with ice-cold lysis buffer. […] Proteins were detected using enhanced chemiluminescence.

[2] = test system: T1, peptide identical to amino acids 9-25 within the N-terminus of wild-type Src (WT)
T1 sequence: KDASQRRRSLEPAENVH

[3] = test system: T2, Src 9-25 control peptide S12A
T2 sequence: KDAAQRRRSLEPAENVH

Compound: COc1cccc(-c2cc(=O)c3ccccc3o2)c1N [PD98059]
- PDGF stimulation of proliferation in presence of MEK inhibitor (Src++ and SYF cells; Src++ and SYF cells, 10 μM): dependent on ERK signaling
- Effect on PDGF- and EGF-stimulated SYF cell growth (Src++ and SYF cells; transfected SYF cells, pretreatment): blocked

- Recognition by phospho-PKA substrate antibody after PKA kinase assay [1]: recognized
Compound: KDASQRRRSLEPAENVH (listed as Homo sapiens) [WT, peptide identical to amino acids 9-25 of wild-type Src]

- Recognition by phospho-PKA substrate antibody after PKA kinase assay [1]: recognized
Compound: S12A: control Src 9-25 peptide with serine 12 replaced by alanine (KDAAQRRRSLEPAENVH)

Compound: epidermal growth factor [EGF]
- Stimulation of cell growth (Src++ and SYF cells): stimulated SYF cell growth
- Activation of wild type Src and SrcS17A by growth factor (Src): activated both wild type Src and SrcS17A equally

Compound: platelet-derived growth factor [PDGF]
- Stimulation of cell growth (Src++ and SYF cells): stimulated SYF cell growth
- Activation of wild type Src and SrcS17A by growth factor (Src): activated both wild type Src and SrcS17A equally

Compound: prostaglandin E [PGE1]
- Activation of endogenous Rap1 (Rap1): activated Rap1

Compound: purified catalytic subunit of PKA
- phosphorylation of spotted peptide, detected with the phospho-PKA substrate antibody [2]: Only the peptides containing Ser17 and adjacent arginines (WT and S12A) were recognized by the antibody, consistent with the consensus PKA recognition motif.
- phosphorylation of spotted peptide, detected with the phospho-PKA substrate antibody [3]: Only the peptides containing Ser17 and adjacent arginines (WT and S12A) were recognized by the antibody, consistent with the consensus PKA recognition motif.
